# From US20110178104A1, “Anti-Heparin Compounds” (POLYMEDIX INC., priority 2010, published 2011)
# pEC50: −log10 of the molar value.
# Assays:
# [1] = test system: tinzaparin; assay: FXa amidolytic assay (Example 10), tinzaparin; settings: read-out: Tinzap FXa EC50; tinzaparin 0.1 ug/ml; human antithrombin, bovine Factor Xa
# [2] = test system: enoxaparin; assay: FXa amidolytic assay (Example 10), enoxaparin; settings: read-out: Enox FXa EC50; enoxaparin 0.1 ug/ml; human antithrombin, bovine Factor Xa
# [3] = test system: Unfractionated heparin; assay: aPTT clotting assay, UFH 0.4 U/mL in plasma (Example 10); format: biochemical; settings: unfractionated heparin 0.4 U/mL in plasma; aPTT clotting
# Description: aPTT clotting Assay: Unfractionated heparin was mixed with plasma at a final concentration of 0.4 U/mL (or concentration which increases aPTT time to between 120 and 300 seconds). […] The ACL Elite Hemostasis analyzer (Beckman Coulter™) was used to add aPTT reagent (HemosIL SynthASil) to supplemented plasma. Clotting was initiated by addition of CaCl2 and time to clot was recorded.
# [4] = test system: isolated human erythrocytes; assay: cells; format: cell-based; settings: human RBC, 1 hour at 37° C.; for EC50: Homo sapiens, Erythrocyte, 1 h, read-out: Hemolysis EC50
# Summary of the method: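 Pooled human red cells, washed and diluted from a 0.22% stock suspension in TBS pH 7.4, were shaken with two-fold dilutions (1000 to 0.48 µg/ml) for 1 h at 37 °C. Released hemoglobin in the supernatant was read at OD405. EC50 came from a four-parameter logistic fit, with melittin as positive control.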
# [5] = test system: UFH; assay: FXa amidolytic assay (Example 10), UFH; settings: read-out: Heparin FXa uM EC50; UFH 0.03 units/mL; human antithrombin, bovine Factor Xa
# [6] = Cytotoxicity colorimetric assay, HepG2; format: cell-based, human; parameters: Cytotoxicity HepG2, percent printed in parentheses after the concentration: concentration or dose not given beside the values; settings: human, HepG2 cells, one hour in serum-free media
# Description: (§1) This assay measures the bioreduction of a novel tetrazolium compound to a soluble formazan product by viable cells. HepG2 cells were seeded in 96 well plates at 3×10^4 cells/well in MEM medium with 10% fetal bovine serum (FBS) 24 hours prior to use. NIH/3T3 cells were seeded in 96 well plates at 2×10^4 cells/well in DMEM medium with 10% bovine calf serum (BCS) 24 hours prior to use. Cell monolayers were rinsed in serum-free media and incubated for one hour with test agent in serum-free media. After incubation, the media was replaced with serum supplemented media and live cells were measured using the Cell Titer 96 Aqueous […] Assay kit (Promega, Madison, Wis.). EC50 values were determined using a four parameter logistic equation: Y=Bottom+(Top-Bottom)/(1+10̂((LogEC50-X)*HillSlope)).
# [7] = test system: HepG2 cells; assay: Cytotoxicity colorimetric assay, HepG2; format: cell-based, human; parameters: Cytotoxicity HepG2, percent printed in parentheses after the concentration: concentration or dose not given beside the values; settings: for Cytotoxicity HepG2, percent printed in parentheses after the concentration: at the concentration given
# Description: as §1
# [8] = test system: fondaparinux; assay: FXa amidolytic assay (Example 10), fondaparinux; settings: for pEC50: read-out: Fondap FXa EC50, fondaparinux 0.02 μg/mL, human antithrombin, bovine Factor Xa
# [9] = test system: NIH/3T3 cells; assay: Cytotoxicity colorimetric assay, NIH/3T3; format: cell-based, mouse; settings: for Cytotoxicity 3T3, percent printed in parentheses after the concentration: at the concentration given
# Description: as §1
# [10] = Cytotoxicity colorimetric assay, NIH/3T3; format: cell-based, mouse; settings: mouse, NIH/3T3 cells, one hour in serum-free media
# Description: as §1
# [11] = test system: enoxaparin; assay: In vivo neutralization of enoxaparin in the rat; settings: compared with protamine
# Description: Compounds were tested for their ability to neutralize enoxaparin coagulation inhibition in rats. Male Sprague-Dawley rats were used in this study (Charles River Laboratories). They were ten-weeks-old at the start of the study and their weights ranged from 319-362 g. Enoxaparin (2 mg/kg) was administered by IV injection to groups of six rats. After 3 min, saline, protamine or a test compound was administered by IV injection. Blood was collected before dosing with enoxaparin, and at 1, 3, 10, 30 and 60 min after dosing with the standard and test compounds. All treatments were dosed in a volume of 1 mL/kg. Blood was collected via the orbital sinus from three rats per group. At each time point, 1 mL of blood was collected from each animal into a single tube. The blood was analyzed using an AMEX Destiny Plus Coagulation Analyzer for activated partial thromboplastin time (APTT) and anti-Factor Xa (low-molecular weight).
Compound,pEC50 [1],pEC50 [2],pEC50 [3],EC50 [5] [µM],pEC50 [8],EC50 [4] [µg/mL],EC50 at 1 h [6] [µg/mL],"Cytotoxicity HepG2, percent printed in parentheses after the concentration [7] [%]","Cytotoxicity 3T3, percent printed in parentheses after the concentration [9] [%]",EC50 at 1 h [10] [µg/mL],in vivo efficacy versus LMWH by anti-factor Xa activity (summary) [11],Potent LMWH-antagonists with superior anti-fondaparinux activity (summary) [8],Cytotoxicity 3T3 EC50 ([9]; one hour in serum-free media) [µg/mL],Hemolysis EC50 [4],Cytotoxicity HepG2 EC50 ([7]; one hour in serum-free media) [µg/mL]
COc1cc(OC)c(C(=O)N[C@H]2CC[C@@H](NC(=O)c3ccc(OCCCCCN)cc3OCCCCCN)CC2)cc1C(=O)N[C@H]1CC[C@@H](NC(=O)c2ccc(OCCCCCN)cc2OCCCCCN)CC1 [Compound 369],6.75,6.84,6.46,0.411,5.41,> 1000,280,–,–,100,superior to protamine,–,–,–,–
COc1ccc(NC(=O)[C@@H](CCCNC(=N)N)NC(=O)c2cc(NC(=O)[C@@H](CCCNC(=N)N)NC(=O)c3cc(NC(=O)[C@@H](CCCNC(=N)N)NC(=O)c4cc(NC(=O)[C@H](N)CCCNC(=N)N)ccc4OC)ccc3OC)ccc2OCC(=O)O)cc1C(N)=O [Compound 281],6.95,6.89,5.74,0.108,6.36,> 1000,1000,50,–,–,–,–,–,–,–
protamine sulfate [reference compound],–,–,–,–,–,–,–,–,–,–,–,–,>1000,>1000 µg/mL,>1000
COc1cc(OC)c(C(=O)N[C@H]2CC[C@@H](NC(=O)c3cc(C(=O)NCCN(C)C)c(OCCCCCN)cc3OCCCCCN)CC2)cc1C(=O)N[C@H]1CC[C@@H](NC(=O)c2cc(C(=O)NCCN(C)C)c(OCCCCCN)cc2OCCCCCN)CC1 [Compound 363],6.95,7.17,5.99,0.134,5.97,> 1000,> 1000,–,–,500,superior to protamine,superior anti-fondaparinux activity,–,–,–
COc1ccc(NC(=O)[C@H](CCCNC(=N)N)NC(=O)c2cc(NC(=O)[C@H](CCCNC(=N)N)NC(=O)c3cc(NC(=O)[C@H](CCCNC(=N)N)NC(=O)c4cc(NC(=O)[C@@H](N)CCCNC(=N)N)ccc4OC)ccc3OC)ccc2OCC(=O)O)cc1C(N)=O [Compound 287],6.97,6.94,5.70,–,6.40,–,1000,30,50,1000,–,–,–,no significant decrease,–
COc1cc(OC)c(C(=O)N[C@H]2CC[C@@H](NC(=O)c3cc(C(=O)N[C@H]4CC[C@@H](NC(=O)c5cc(C(=O)NCCN)c(OC)cc5OC)CC4)c(OC)cc3OC)CC2)cc1C(=O)NCCN [Compound 381],6.56,6.54,5.57,0.777,6.31,22.4,1130,–,–,1080,–,–,–,–,–

# More lines, main results first:
pEC50 [1],pEC50 [2],pEC50 [3],EC50 [5] [µM],pEC50 [8],Compound,EC50 [4] [µg/mL],EC50 at 1 h [6] [µg/mL],"Cytotoxicity HepG2, percent printed in parentheses after the concentration [7] [%]","Cytotoxicity 3T3, percent printed in parentheses after the concentration [9] [%]",EC50 at 1 h [10] [µg/mL],in vivo efficacy versus LMWH by anti-factor Xa activity (summary) [11],Potent LMWH-antagonists with superior anti-fondaparinux activity (summary) [8],Cytotoxicity 3T3 EC50 ([9]; one hour in serum-free media) [µg/mL],Hemolysis EC50 [4],Cytotoxicity HepG2 EC50 ([7]; one hour in serum-free media) [µg/mL]
6.50,6.53,5.15,0.215,6.65,COc1ccc(NC(=O)[C@@H](CCCNC(=N)N)NC(=O)c2cc(NC(=O)[C@@H](CCCNC(=N)N)NC(=O)c3cc(NC(=O)[C@@H](CCCNC(=N)N)NC(=O)c4cc(NC(C)=O)ccc4OC)ccc3OC)ccc2OC)cc1C(=O)N[C@H](Cc1ccc(O)cc1)C(=O)O [Compound 297],> 1000,300,60,–,–,–,–,–,–,–
6.59,6.59,< 5.00,0.242,6.68,COc1ccc(NC(=O)[C@@H](CCCNC(=N)N)NC(=O)c2cc(NC(=O)[C@@H](CCCNC(=N)N)NC(=O)c3cc(NC(=O)[C@@H](CCCNC(=N)N)NC(=O)c4cc(NC(C)=O)ccc4OC)ccc3OC)ccc2OC)cc1C(=O)N[C@H](Cc1c[nH]c2ccccc12)C(=O)O [Compound 304],~500,–,50,–,–,–,–,–,–,–
6.94,6.92,6.14,0.292,6.68,COC(=O)c1cccc(C(=O)N[C@@H](CCCCN)C(=O)Nc2ccc(OC)c(C(=O)N[C@@H](CCCCN)C(=O)Nc3ccc(OC)c(C(=O)N[C@@H](CCCCN)C(=O)Nc4ccc(OC)c(C(=O)N[C@@H](CCCCN)C(=O)Nc5ccc(OC)c(C(N)=O)c5)c4)c3)c2)c1 [Compound 340],–,1000,60,60,1000,–,–,–,–,–
6.43,6.29,5.63,0.11,5.60,COc1ccc(NC(=O)[C@H](CCCCN)NC(=O)c2cc(NC(=O)[C@H](CCCCN)NC(=O)c3cc(NC(=O)[C@H](CCCCN)NC(=O)c4cc(NC(=O)[C@@H](N)Cc5c[nH]c6ccccc56)ccc4OC)ccc3OC)ccc2OC)cc1C(N)=O [Compound 246],> 1000,60,80,–,–,–,–,–,–,–
6.45,6.42,5.90,0.179,5.80,COc1ccc(NC(=O)[C@H](CCCCN)NC(=O)c2cc(NC(=O)[C@H](CCCCN)NC(=O)c3cc(NC(=O)[C@H](CCCCN)NC(=O)c4cc(NC(=O)[C@@H](N)CCCCN)ccc4OC)ccc3OC)ccc2OC)cc1C(=O)N[C@@H](Cc1ccccc1)C(=O)O [Compound 263],> 1000,255,60,–,–,–,–,–,–,–
7.17,6.92,5.62,0.153,6.58,COc1ccc(NC(=O)[C@H](CCCCN)NC(=O)c2cc(NC(=O)[C@H](CCCCN)NC(=O)c3cc(NC(=O)[C@H](CCCCN)NC(=O)c4cc(NC(=O)[C@@H](N)CCCCN)ccc4OC)ccc3OC)ccc2OCC(=O)O)cc1C(=O)N[C@@H](Cc1c[nH]c2ccccc12)C(N)=O [Compound 348],> 1000,> 1000,–,–,> 1000,superior to protamine,superior anti-fondaparinux activity,–,–,–
6.95,6.87,5.76,–,6.24,COc1ccc(NC(=O)[C@H](CCCCN)NC(=O)c2cc(NC(=O)[C@H](CCCCN)NC(=O)c3cc(NC(=O)[C@H](CCCCN)NC(=O)c4cc(NC(=O)[C@@H](N)CCCCN)ccc4OC)ccc3OC)ccc2OC)cc1C(=O)Nc1cccc(C(=O)O)c1 [Compound 275],–,1000,50,–,–,–,–,–,–,–
6.86,6.88,5.64,0.301,6.92,COc1ccc(NC(=O)[C@H](CCCNC(=N)N)NC(=O)c2cc(NC(=O)[C@H](CCCNC(=N)N)NC(=O)c3cc(NC(=O)[C@H](CCCNC(=N)N)NC(=O)c4cc(NC(=O)[C@@H](N)CCCNC(=N)N)ccc4OC)ccc3OC)ccc2OC)cc1C(=O)N[C@@H](Cc1c[nH]c2ccccc12)C(=O)O [Compound 309],~100,1000,50,50,1000,–,–,–,–,–
